Experimental data from ChEMBL document CHEMBL4052645, “Discovery of potent and efficacious pyrrolopyridazines as dual JAK1/3 inhibitors” (Bioorg Med Chem Lett, 2017).

Assays:
JAK3/JAK1 = JAK3/JAK1 (Homo sapiens, UniProt P23458+P52333); assay: Inhibition of JAK1/JAK3 in human whole blood assessed as reduction in IL-2 induced IFN-gamma production after 18 hrs by ELISA; assay type: protein-complex assay
[1] = target: cGMP-dependent protein kinase 1 (Homo sapiens) (UniProt Q13976); assay: Inhibition of wild-type human partial length PKG1 (L339 to F686 residues) expressed in bacterial expression system assessed as residual activity at 50 nM by Kinomescan method relative to control
[2] = target: Aurora kinase A (Homo sapiens) (UniProt O14965); assay: Inhibition of wild-type human partial length AURA (E122 to K401 residues) expressed in mammalian expression system assessed as residual activity at 50 nM by Kinomescan method relative to control
[3] = target: Serine/threonine-protein kinase RIO1 (Homo sapiens) (UniProt Q9BRS2); assay: Inhibition of full length human RIOK1 (M1 to K568 residues) expressed in bacterial expression system assessed as residual activity at 50 nM by KINOMEscan assay relative to control
[4] = target: Bone morphogenetic protein receptor type-1B (Homo sapiens) (UniProt O00238); assay: Inhibition of wild-type human partial length BMPR1B (D178 to L502 residues) expressed in mammalian expression system assessed as residual activity at 50 nM by Kinomescan method relative to control
[5] = target: Serine/threonine-protein kinase PLK2 (Homo sapiens) (UniProt Q9NYY3); assay: Inhibition of wild-type human partial length PLK2 (H58 to F354 residues) expressed in mammalian expression system assessed as residual activity at 50 nM by Kinomescan method relative to control
[6] = target: Mitogen-activated protein kinase kinase kinase 2 (Homo sapiens) (UniProt Q9Y2U5); assay: Inhibition of wild-type human partial length MAP3K2 (S315 to H619 residues) expressed in mammalian expression system assessed as residual activity at 50 nM by Kinomescan method relative to control
[7] = target: Serine/threonine-protein kinase PAK 2 (Homo sapiens) (UniProt Q13177); assay: Inhibition of wild-type human partial length PAK2 (P151 to R525 residues) expressed in bacterial expression system assessed as residual activity at 50 nM by Kinomescan method relative to control
[8] = target: Interferon-induced, double-stranded RNA-activated protein kinase (Homo sapiens) (UniProt P19525); assay: Inhibition of wild-type human partial length PKR (F247 to C551 residues) expressed in bacterial expression system assessed as residual activity at 50 nM by Kinomescan method relative to control
[9] = target: Cyclin-dependent kinase 11B (Homo sapiens) (UniProt P21127); assay: Inhibition of wild-type human partial length CDK11 (M1 to N360 residues) expressed in bacterial expression system assessed as residual activity at 50 nM by Kinomescan method relative to control
[10] = target: Proto-oncogene tyrosine-protein kinase receptor Ret (Homo sapiens) (UniProt P07949); assay: Inhibition of wild-type human partial length RET (E713 to D1014 residues) expressed in bacterial expression system assessed as residual activity at 50 nM by Kinomescan method relative to control
[11] = target: Phosphatidylinositol 4-phosphate 3-kinase C2 domain-containing subunit beta (Homo sapiens) (UniProt O00750); assay: Inhibition of wild-type human partial length PI3KC2B (M1 to L1634 residues) expressed in mammalian expression system assessed as residual activity at 50 nM by Kinomescan method relative to control
[12] = target: Phosphatidylinositol 4,5-bisphosphate 3-kinase catalytic subunit gamma isoform (Homo sapiens) (UniProt P48736); assay: Inhibition of wild-type human partial length PI3KCG (S144 to A1102 residues) expressed in mammalian expression system assessed as residual activity at 50 nM by Kinomescan method relative to control
[13] = target: Serine/threonine-protein kinase MRCK alpha (Homo sapiens) (UniProt Q5VT25); assay: Inhibition of wild-type human partial length MRCKA (L57 to V418 residues) expressed in bacterial expression system assessed as residual activity at 50 nM by Kinomescan method relative to control
[14] = target: Calcium/calmodulin-dependent protein kinase type II subunit delta (Homo sapiens) (UniProt Q13557); assay: Inhibition of wild-type human partial length CAMK2D (M1 to E329 residues) expressed in bacterial expression system assessed as residual activity at 50 nM by Kinomescan method relative to control
[15] = target: Mitogen-activated protein kinase 10 (Homo sapiens) (UniProt P53779); assay: Inhibition of wild-type human partial length JNK3 (V28 to Q422 residues) expressed in mammalian expression system assessed as residual activity at 50 nM by Kinomescan method relative to control
[16] = target: Serine/threonine-protein kinase tousled-like 1 (Homo sapiens) (UniProt Q9UKI8); assay: Inhibition of wild-type human partial length TLK1 (K447 to A754 residues) expressed in bacterial expression system assessed as residual activity at 50 nM by Kinomescan method relative to control
[17] = target: Atypical kinase COQ8B, mitochondrial (Homo sapiens) (UniProt Q96D53); assay: Inhibition of wild-type human full length ADCK4 (M1 to S544 residues) expressed in bacterial expression system assessed as residual activity at 50 nM by Kinomescan method relative to control
Plasmodium falciparum = assay: Inhibition of wild-type Plasmodium falciparum full length PFB0815W (M1 to S524 residues) expressed in mammalian expression system assessed as residual activity at 50 nM by Kinomescan method relative to control
[18] = target: Tyrosine-protein kinase receptor Tie-1 (Homo sapiens) (UniProt P35590); assay: Inhibition of wild-type human partial length TIE1 (T819 to A1138 residues) expressed in bacterial expression system assessed as residual activity at 50 nM by Kinomescan method relative to control
[19] = target: Peripheral plasma membrane protein CASK (Homo sapiens) (UniProt O14936); assay: Inhibition of wild-type human partial length CASK (M1 to H315 residues) expressed in mammalian expression system assessed as residual activity at 50 nM by Kinomescan method relative to control
[20] = target: STE20/SPS1-related proline-alanine-rich protein kinase (Homo sapiens) (UniProt Q9UEW8); assay: Inhibition of wild-type human partial length STLK3 (P43 to I357 residues) expressed in mammalian expression system assessed as residual activity at 50 nM by Kinomescan method relative to control
[21] = target: Dual specificity protein kinase CLK1 (Homo sapiens) (UniProt P49759); assay: Inhibition of wild-type human full length CLK1 (M1 to I484 residues) expressed in bacterial expression system assessed as residual activity at 50 nM by Kinomescan method relative to control
[22] = target: Serine/threonine-protein kinase 26 (Homo sapiens) (UniProt Q9P289); assay: Inhibition of full lengthhuman MST4 (M1 to P416 residues) expressed in mammalian expression system assessed as residual activity at 50 nM by KINOMEscan assay relative to control
[23] = target: Serine/threonine-protein kinase PRP4 homolog (Homo sapiens) (UniProt Q13523); assay: Inhibition of wild-type human partial length PRP4 (D657 to I1007 residues) expressed in bacterial expression system assessed as residual activity at 50 nM by Kinomescan method relative to control
Chain of Serine/threonine-protein kinase PRP4 homolog (Homo sapiens) (Q13523 whole entry, the tested form may be a part): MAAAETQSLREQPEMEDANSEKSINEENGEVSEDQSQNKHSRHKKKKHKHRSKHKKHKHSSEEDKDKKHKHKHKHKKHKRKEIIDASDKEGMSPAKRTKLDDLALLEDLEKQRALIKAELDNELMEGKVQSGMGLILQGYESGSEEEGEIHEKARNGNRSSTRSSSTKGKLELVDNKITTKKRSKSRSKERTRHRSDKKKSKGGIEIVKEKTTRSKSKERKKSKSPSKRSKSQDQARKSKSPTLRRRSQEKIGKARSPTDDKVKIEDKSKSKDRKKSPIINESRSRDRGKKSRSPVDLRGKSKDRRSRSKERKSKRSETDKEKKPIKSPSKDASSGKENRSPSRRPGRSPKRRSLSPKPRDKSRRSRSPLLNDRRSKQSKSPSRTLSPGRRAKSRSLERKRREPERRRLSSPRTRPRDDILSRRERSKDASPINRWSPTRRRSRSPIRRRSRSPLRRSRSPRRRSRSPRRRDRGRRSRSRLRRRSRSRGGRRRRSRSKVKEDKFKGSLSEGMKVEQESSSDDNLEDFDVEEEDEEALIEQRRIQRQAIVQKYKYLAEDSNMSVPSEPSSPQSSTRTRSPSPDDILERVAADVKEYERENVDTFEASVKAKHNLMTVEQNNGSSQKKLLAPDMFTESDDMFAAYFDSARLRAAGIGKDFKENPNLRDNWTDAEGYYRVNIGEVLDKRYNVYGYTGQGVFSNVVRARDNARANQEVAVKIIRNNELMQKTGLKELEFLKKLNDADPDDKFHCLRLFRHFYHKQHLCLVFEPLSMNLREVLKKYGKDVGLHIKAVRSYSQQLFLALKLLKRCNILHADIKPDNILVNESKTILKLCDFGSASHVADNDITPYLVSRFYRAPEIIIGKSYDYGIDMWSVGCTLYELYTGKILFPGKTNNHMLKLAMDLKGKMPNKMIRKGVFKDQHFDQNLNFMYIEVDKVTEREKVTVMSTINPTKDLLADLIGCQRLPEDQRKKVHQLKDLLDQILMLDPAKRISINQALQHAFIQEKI

Chain of Mitogen-activated protein kinase kinase kinase 2 (Homo sapiens) (Q9Y2U5 whole entry, the tested form may be a part): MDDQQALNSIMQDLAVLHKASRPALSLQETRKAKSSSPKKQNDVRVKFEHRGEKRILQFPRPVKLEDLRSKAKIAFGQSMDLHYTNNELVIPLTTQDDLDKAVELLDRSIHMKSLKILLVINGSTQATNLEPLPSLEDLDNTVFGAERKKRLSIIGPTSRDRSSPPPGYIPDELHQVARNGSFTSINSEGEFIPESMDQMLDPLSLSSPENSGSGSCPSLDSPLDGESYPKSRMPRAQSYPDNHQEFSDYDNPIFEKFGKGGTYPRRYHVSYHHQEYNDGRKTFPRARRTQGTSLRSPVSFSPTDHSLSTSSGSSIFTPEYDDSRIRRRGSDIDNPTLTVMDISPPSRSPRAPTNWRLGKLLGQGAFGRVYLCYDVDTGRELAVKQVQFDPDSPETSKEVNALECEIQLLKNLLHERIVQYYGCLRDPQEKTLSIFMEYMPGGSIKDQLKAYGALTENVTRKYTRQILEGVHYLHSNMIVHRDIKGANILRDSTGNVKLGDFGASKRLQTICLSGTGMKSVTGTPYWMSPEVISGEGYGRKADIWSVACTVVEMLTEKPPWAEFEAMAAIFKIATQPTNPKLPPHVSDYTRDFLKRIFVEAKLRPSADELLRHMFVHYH
Chain of Serine/threonine-protein kinase PLK2 (Homo sapiens) (Q9NYY3 whole entry, looked up, the tested form may be a part): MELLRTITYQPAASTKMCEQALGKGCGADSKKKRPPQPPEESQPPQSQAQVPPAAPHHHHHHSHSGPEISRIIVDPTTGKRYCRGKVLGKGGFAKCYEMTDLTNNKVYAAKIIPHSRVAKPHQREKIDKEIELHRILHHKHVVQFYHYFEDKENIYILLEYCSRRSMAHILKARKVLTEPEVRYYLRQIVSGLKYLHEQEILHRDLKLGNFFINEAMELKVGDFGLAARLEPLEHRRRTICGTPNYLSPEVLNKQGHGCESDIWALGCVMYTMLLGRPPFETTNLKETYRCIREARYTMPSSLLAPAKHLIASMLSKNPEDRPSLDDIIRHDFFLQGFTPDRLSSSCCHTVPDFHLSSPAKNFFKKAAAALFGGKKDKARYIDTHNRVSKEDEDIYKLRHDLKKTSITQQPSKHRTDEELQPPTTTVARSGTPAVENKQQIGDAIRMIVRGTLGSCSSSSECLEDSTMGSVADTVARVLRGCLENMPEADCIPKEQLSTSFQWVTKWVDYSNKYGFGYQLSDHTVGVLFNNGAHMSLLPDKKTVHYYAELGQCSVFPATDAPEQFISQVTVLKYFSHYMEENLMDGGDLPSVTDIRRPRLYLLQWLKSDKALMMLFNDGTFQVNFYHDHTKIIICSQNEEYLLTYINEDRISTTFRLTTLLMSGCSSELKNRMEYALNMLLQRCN
Chain of Peripheral plasma membrane protein CASK (Homo sapiens) (O14936 whole entry, the tested form may be a part): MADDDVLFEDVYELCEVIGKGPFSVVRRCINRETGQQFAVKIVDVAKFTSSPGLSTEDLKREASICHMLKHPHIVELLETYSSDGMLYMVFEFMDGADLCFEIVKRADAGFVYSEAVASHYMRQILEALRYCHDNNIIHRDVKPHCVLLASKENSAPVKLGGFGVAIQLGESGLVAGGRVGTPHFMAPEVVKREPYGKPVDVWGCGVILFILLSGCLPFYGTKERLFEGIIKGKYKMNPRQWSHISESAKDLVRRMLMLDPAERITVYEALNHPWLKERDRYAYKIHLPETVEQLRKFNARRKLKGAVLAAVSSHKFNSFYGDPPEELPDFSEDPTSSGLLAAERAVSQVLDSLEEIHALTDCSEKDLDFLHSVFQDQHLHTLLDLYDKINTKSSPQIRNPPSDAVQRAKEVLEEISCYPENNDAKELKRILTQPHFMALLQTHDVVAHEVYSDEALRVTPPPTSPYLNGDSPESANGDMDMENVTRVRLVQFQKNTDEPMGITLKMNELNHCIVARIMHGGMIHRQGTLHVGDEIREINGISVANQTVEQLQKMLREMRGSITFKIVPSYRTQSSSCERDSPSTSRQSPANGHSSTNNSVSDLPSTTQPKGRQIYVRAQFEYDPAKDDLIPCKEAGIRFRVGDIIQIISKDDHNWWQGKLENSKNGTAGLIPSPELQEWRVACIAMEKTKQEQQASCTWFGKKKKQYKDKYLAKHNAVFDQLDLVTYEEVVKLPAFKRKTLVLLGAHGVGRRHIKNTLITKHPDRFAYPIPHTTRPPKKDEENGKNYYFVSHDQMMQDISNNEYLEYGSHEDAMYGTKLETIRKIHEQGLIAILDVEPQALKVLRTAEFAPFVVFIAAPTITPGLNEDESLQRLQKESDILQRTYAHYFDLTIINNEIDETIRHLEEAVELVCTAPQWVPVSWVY
Chain of Proto-oncogene tyrosine-protein kinase receptor Ret (Homo sapiens) (P07949 whole entry, the tested form may be a part): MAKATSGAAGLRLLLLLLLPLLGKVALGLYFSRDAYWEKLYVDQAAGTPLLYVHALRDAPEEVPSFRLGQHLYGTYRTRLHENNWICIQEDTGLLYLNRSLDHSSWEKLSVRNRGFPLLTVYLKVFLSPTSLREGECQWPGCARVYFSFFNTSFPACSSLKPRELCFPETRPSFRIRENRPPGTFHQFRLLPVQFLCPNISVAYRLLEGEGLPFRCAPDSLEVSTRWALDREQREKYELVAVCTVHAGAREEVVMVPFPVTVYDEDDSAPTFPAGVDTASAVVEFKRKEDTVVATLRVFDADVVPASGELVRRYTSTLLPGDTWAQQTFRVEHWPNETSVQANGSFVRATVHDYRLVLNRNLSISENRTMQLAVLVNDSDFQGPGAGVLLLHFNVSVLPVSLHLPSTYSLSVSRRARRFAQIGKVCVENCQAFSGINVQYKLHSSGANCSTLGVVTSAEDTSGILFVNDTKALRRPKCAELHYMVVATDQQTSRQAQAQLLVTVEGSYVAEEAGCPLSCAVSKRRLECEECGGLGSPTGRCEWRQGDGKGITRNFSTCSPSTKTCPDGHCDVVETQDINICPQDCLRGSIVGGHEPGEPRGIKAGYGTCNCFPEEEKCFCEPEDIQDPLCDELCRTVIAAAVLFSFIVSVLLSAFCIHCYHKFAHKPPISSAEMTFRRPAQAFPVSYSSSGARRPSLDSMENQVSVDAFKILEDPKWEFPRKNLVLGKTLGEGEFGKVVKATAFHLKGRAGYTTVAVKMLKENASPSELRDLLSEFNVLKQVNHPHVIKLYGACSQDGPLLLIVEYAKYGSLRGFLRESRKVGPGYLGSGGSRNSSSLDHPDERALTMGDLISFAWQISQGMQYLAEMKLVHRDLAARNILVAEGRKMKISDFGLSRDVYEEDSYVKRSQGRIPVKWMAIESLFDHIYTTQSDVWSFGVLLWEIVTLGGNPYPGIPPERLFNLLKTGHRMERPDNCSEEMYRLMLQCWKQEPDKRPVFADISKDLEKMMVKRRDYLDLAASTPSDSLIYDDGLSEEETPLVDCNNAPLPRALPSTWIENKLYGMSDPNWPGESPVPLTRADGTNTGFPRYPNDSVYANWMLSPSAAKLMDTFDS
Chain of Dual specificity protein kinase CLK1 (Homo sapiens) (P49759 whole entry, looked up, the tested form may be a part): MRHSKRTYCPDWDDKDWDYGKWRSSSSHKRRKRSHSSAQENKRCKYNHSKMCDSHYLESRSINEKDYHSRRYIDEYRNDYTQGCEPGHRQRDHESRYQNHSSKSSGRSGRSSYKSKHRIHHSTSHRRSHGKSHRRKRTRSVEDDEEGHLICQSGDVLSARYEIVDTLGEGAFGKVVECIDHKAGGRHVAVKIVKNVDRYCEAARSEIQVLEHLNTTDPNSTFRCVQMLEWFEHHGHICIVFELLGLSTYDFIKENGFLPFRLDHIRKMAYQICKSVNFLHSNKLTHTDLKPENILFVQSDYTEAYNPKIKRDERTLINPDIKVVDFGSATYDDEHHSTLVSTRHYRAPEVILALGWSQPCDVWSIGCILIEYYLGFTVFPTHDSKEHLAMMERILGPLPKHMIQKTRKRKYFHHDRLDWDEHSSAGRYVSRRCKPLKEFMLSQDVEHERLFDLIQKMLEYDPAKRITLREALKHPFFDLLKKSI

| Compound | IC50 (JAK3/JAK1) [nM] | Activity [1] [%] | Activity [2] [%] | Activity [3] [%] | Activity [4] [%] | Activity [5] [%] | Activity [6] [%] | Activity [7] [%] | Activity [8] [%] | Activity [9] [%] | Activity [10] [%] | Activity [11] [%] | Activity [12] [%] | Activity [13] [%] | Activity [14] [%] | Activity [15] [%] | Activity [16] [%] | Activity [17] [%] | Activity (Plasmodium falciparum) [%] | Activity [18] [%] | other results |
| --- | --- | --- | --- | --- | --- | --- | --- | --- | --- | --- | --- | --- | --- | --- | --- | --- | --- | --- | --- | --- | --- |
| CC1(C)[C@H](Nc2c(C(N)=O)cnn3cc(-c4ccccc4)cc23)CC[C@]1(C)N | 200 | 100 | 88 | 14 | 100 | 100 | 30 | 76 | 100 | 99 | 100 | 100 | 100 | 74 | 100 | 87 | 61 | 91 | 67 | 91 | Activity [19]: 98%; Activity [20]: 100%; Activity [21]: 100%; Activity [22]: 12%; Activity [23]: 95% |
| COc1ccc(-c2cc3c(N[C@@H]4CC[C@](C)(N)C4(C)C)c(C(N)=O)cnn3c2)cn1 | 100 | 100 | 100 | 69 | 100 | 100 | 46 | 77 | 99 | 100 | 92 | 100 | 100 | 97 | 100 | 100 | 80 | 100 | 100 | 97 | Activity [19]: 95%; Activity [20]: 84%; Activity [21]: 97%; Activity [22]: 23%; Activity [23]: 97% |
